These results are taken from patent publication US12173018B2, “Penicillin-binding protein inhibitors” (priority 2018, dated 2024).

Structures are written as SMILES. ≈ marks a conversion by molar mass, not a printed value. Read-outs that look alike come from different tables or passages of the source. Bounds are passed on as bounds.

The EC50 is the concentration at which the effect is half-maximal.

The test system of test [1] is engineered strain of Escherichia coli harboring CTX-M15. Put plainly: microbe, parasite or virus in culture. It is filed as cell-based. The settings on record: Escherichia coli.
For a further test, the target named is E. coli PBP2 (Escherichia coli (strain K12), UniProt P0AD65). Put plainly: E. coli PBP2 Bocillin-FL fluorescence polarization competition binding assay. In a few lines: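 Purified PBP2 at 1.5 μM final was preincubated with boronic acid inhibitor, then Bocillin-FL added to 0.1 μM final in Hepes pH 8.0/NaCl/glycerol buffer. Polarization was monitored 90 min; the concentration halving probe binding is reported as EC50.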
(In general: Fluorescence polarisation rises when a labelled molecule tumbles more slowly, as on binding a larger partner.)

The mark [2] stands for this setting: read-out: Microbiological Activity (MIC in mg/L), E. coli DH5α/pLBII-CTX-M15, engineered strain producing CTX-M15.
[3] abbreviates: fluorescence polarization competition binding with Bocillin-FL, read-out: E. coli K12 PBP2 Potency (EC50).

Sequence of E. coli PBP2 (P0AD65 whole entry): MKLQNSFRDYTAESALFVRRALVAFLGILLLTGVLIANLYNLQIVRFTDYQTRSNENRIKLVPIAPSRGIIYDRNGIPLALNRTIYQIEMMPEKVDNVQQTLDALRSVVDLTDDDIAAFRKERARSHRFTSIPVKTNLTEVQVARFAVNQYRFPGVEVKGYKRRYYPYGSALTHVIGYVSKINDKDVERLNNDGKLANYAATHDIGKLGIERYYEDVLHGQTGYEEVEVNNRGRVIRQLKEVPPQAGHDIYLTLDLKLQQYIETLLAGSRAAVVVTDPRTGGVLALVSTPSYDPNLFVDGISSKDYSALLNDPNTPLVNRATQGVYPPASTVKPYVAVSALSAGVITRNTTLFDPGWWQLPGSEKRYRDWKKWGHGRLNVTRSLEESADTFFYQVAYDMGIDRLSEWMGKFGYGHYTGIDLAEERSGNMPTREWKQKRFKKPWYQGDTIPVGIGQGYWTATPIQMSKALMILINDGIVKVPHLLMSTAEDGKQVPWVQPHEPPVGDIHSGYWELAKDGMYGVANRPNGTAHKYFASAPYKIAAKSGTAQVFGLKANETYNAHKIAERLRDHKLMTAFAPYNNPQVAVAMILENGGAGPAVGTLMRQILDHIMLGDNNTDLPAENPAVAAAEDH

As for `CCN1CCN(C(=O)NC(C(=O)N[C@H]2Cc3cccc(C(=O)[O-])c3OB2O)c2ccc[n+](CC(N)=O)c2)C(=O)C1=O` (stereo partly drawn) [Example 107, (3R)-3-(2-(1-(2-amino-2-oxoethyl)pyridin-1-ium-3-yl)-2-(4-ethyl-2,3-dioxopiperazine-1-carboxamido)acetamido)-2-hydroxy-3,4-dihydro-2H-benzo[e][1,2]oxaborinine-8-carboxylate], the MIC in test [1] (setting [2]) was 32 to 64 mg/L (≈ 56.5 to 113 µM). Take `CCN1CCN(C(=O)NC(C(=O)N[C@H]2Cc3cccc(C(=O)O)c3OB2O)c2cc(O)c(O)cc2F)C(=O)C1=O` (stereo partly drawn) [Example 90, (3R)-3-(2-(4-ethyl-2,3-dioxopiperazine-1-carboxamido)-2-(2-fluoro-4,5-dihydroxyphenyl)acetamido)-2-hydroxy-3,4-dihydro-2H-benzo[e][1,2]oxaborinine-8-carboxylic acid]: in test [1] (setting [2]), the MIC fell in the range of 8 to 16 mg/L (≈ 14.3 to 28.7 µM). Also, the EC50 on E. coli PBP2 (setting [3]) was > 500 µM. Take `O=C(O)c1cccc2c1OB(O)[C@@H](NC(=O)C(NC(=O)N1CCN(CCF)C(=O)C1=O)c1ccc(O)c(O)c1Cl)C2` (stereo partly drawn) [Example 71, (3R)-3-(2-(2-chloro-3,4-dihydroxyphenyl)-2-(4-(2-fluoroethyl)-2,3-dioxopiperazine-1-carboxamido)acetamido)-2-hydroxy-3,4-dihydro-2H-benzo[e][1,2]oxaborinine-8-carboxylic acid]: in test [1] (setting [2]), the MIC was in the range of 8 to 16 mg/L (≈ 13.5 to 27 µM). Still for that read-out and setting: the result for `CCN1CCN(C(=O)NC(C(=O)N[C@H]2Cc3cccc(C(=O)O)c3OB2O)c2cccs2)C(=O)C1=O` (stereo partly drawn) [Example 115, (3R)-3-(2-(4-ethyl-2,3-dioxopiperazine-1-carboxamido)-2-(thiophen-2-yl)acetamido)-2-hydroxy-3,4-dihydro-2H-benzo[e][1,2]oxaborinine-8-carboxylic acid] reads 32 to 64 mg/L (≈ 62.2 to 124 µM).

Consider `CCN1CCN(C(=O)NC(C(=O)N[C@H]2Cc3cccc(C(=O)O)c3OB2O)c2ccc(O)c(O)c2F)C(=O)C1=O` (stereo partly shown) [Example 70], for which the MIC in test [1] (setting [2]) lay in the range of 32 to 64 mg/L (≈ 57.3 to 115 µM). With `CCN1CCN(C(=O)NC(C(=O)N[C@H]2Cc3cccc(C(=O)O)c3OB2O)c2cccc(O)n2)C(=O)C1=O` (stereo partly drawn) [Example 117, (3R)-3-(2-(4-ethyl-2,3-dioxopiperazine-1-carboxamido)-2-(6-hydroxypyridin-2-yl)acetamido)-2-hydroxy-3,4-dihydro-2H-benzo[e][1,2]oxaborinine-8-carboxylic acid], in test [1] (setting [2]), the MIC lay in the range of 32 to 64 mg/L (≈ 60.9 to 122 µM). Besides, the EC50 at E. coli PBP2 (setting [3]) was > 500 µM. For `CCN1CCN(C(=O)NC(C(=O)N[C@H]2Cc3cccc(C(=O)O)c3OB2O)c2ncc(O)cc2F)C(=O)C1=O` (stereo partly drawn) [Example 135, (3R)-3-(2-(4-ethyl-2,3-dioxopiperazine-1-carboxamido)-2-(3-fluoro-5-hydroxypyridin-2-yl)acetamido)-2-hydroxy-3,4-dihydro-2H-benzo[e][1,2]oxaborinine-8-carboxylic acid], at E. coli PBP2 (setting [3]), the EC50 lay in the range of 30 to 500 µM. `CCN1CCN(C(=O)NC(C(=O)N[C@H]2Cc3ccc(F)c(C(=O)O)c3OB2O)c2csc(N)n2)C(=O)C1=O` (stereo partly drawn) [Example 109, (3R)-3-(2-(2-aminothiazol-4-yl)-2-(4-ethyl-2,3-dioxopiperazine-1-carboxamido)acetamido)-7-fluoro-2-hydroxy-3,4-dihydro-2H-benzo[e][1,2]oxaborinine-8-carboxylic acid]: in test [1] (setting [2]), the MIC was in the range of 2 to 4 mg/L (≈ 3.65 to 7.3 µM). Moreover, the half-maximal effective concentration (EC50) on E. coli PBP2 (setting [3]) was > 500 µM. Turning to `CCN1CCN(C(=O)NC(C(=O)N[C@H]2Cc3cccc(C(=O)O)c3OB2O)c2csc(N)n2)C(=O)C1=O` (stereo partly drawn) [Example 5, (3R)-3-(2-(2-aminothiazol-4-yl)-2-(4-ethyl-2,3-dioxopiperazine-1-carboxamido)acetamido)-2-hydroxy-3,4-dihydro-2H-benzo[e][1,2]oxaborinine-8-carboxylic acid], the half-maximal effective concentration (EC50) at E. coli PBP2 (setting [3]) lay within 30 to 500 µM. As to `CCN1CCN(C(=O)NC(C(=O)N[C@H]2Cc3cccc(C(=O)O)c3OB2O)c2ccc(O)cc2)C(=O)C1=O` (stereo partly drawn) [Example 27, (3R)-3-(2-(4-ethyl-2,3-dioxopiperazine-1-carboxamido)-2-(4-hydroxyphenyl)acetamido)-2-hydroxy-3,4-dihydro-2H-benzo[e][1,2]oxaborinine-8-carboxylic acid], the MIC in test [1] (setting [2]) lay in the range of 8 to 16 mg/L (≈ 15.3 to 30.5 µM). Also, the concentration for a half-maximal effect (EC50) at E. coli PBP2 (setting [3]) is > 500 µM. For `CCN1CCN(C(=O)NC(C(=O)N[C@H]2Cc3cccc(C(=O)O)c3OB2O)c2cccc(N)n2)C(=O)C1=O` (stereo partly drawn) [Example 104, (3R)-3-(2-(6-aminopyridin-2-yl)-2-(4-ethyl-2,3-dioxopiperazine-1-carboxamido)acetamido)-2-hydroxy-3,4-dihydro-2H-benzo[e][1,2]oxaborinine-8-carboxylic acid], the concentration for a half-maximal effect (EC50) at E. coli PBP2 is 30 to 500 µM. For the molecule `CCN1CCN(C(=O)NC(C(=O)N[C@H]2Cc3cccc(C(=O)O)c3OB2O)c2ccc(B(O)O)cc2)C(=O)C1=O` (stereo partly shown) [Example 112], the MIC in test [1] (read-out: Microbiological Activity (MIC in mg/L), E. coli DH5α/pLBII-CTX-M15) is 32 to 64 mg/L (≈ 58 to 116 µM). As to `CCN1CCN(C(=O)NC(C(=O)N[C@H]2Cc3cc(F)cc(C(=O)O)c3OB2O)c2csc(N)n2)C(=O)C1=O` (stereo partly drawn) [Example 16, (3R)-3-(2-(2-aminothiazol-4-yl)-2-(4-ethyl-2,3-dioxopiperazine-1-carboxamido)acetamido)-6-fluoro-2-hydroxy-3,4-dihydro-2H-benzo[e][1,2]oxaborinine-8-carboxylic acid], the MIC in test [1] (setting [2]) is 32 to 64 mg/L (≈ 58.4 to 117 µM). In addition, the concentration for a half-maximal effect (EC50) at E. coli PBP2 (setting [3]) was > 500 µM. Consider `CCN1CCN(C(=O)N[C@@H](C(=O)N[C@H]2Cc3ccc(F)c(C(=O)O)c3OB2O)[C@@H](C)O)C(=O)C1=O` [Example 110, (R)-3-((2R,3R)-2-(4-ethyl-2,3-dioxopiperazine-1-carboxamido)-3-hydroxybutanamido)-7-fluoro-2-hydroxy-3,4-dihydro-2H-benzo[e][1,2]oxaborinine-8-carboxylic acid], for which, in test [1] (setting [2]), the MIC lay in the range of 8 to 16 mg/L (≈ 16.2 to 32.4 µM). In addition, the EC50 on E. coli PBP2 (setting [3]) was > 500 µM.

On to `CCN1CCN(C(=O)NC(C(=O)N[C@H]2Cc3cccc(C(=O)O)c3OB2O)c2ncc(O)cc2Cl)C(=O)C1=O` (stereo partly drawn) [Example 150, (3R)-3-(2-(4-ethyl-2,3-dioxopiperazine-1-carboxamido)-2-(3-chloro-5-hydroxypyridin-2-yl)acetamido)-2-hydroxy-3,4-dihydro-2H-benzo[e][1,2]oxaborinine-8-carboxylic acid], for which the concentration giving a half-maximal response (EC50) on E. coli PBP2 (setting [3]) is > 500 µM. The same measure, in the same setting: the result for `NS(=O)(=O)c1ccc(C(NC(=O)N2CCN(CCF)C(=O)C2=O)C(=O)N[C@H]2Cc3cccc(C(=O)O)c3OB2O)cc1` (stereo partly drawn) [Example 103, (3R)-3-(2-(4-(2-fluoroethyl)-2,3-dioxopiperazine-1-carboxamido)-2-(4-sulfamoylphenyl)acetamido)-2-hydroxy-3,4-dihydro-2H-benzo[e][1,2]oxaborinine-8-carboxylic acid] reads > 500 µM; that for `CCN1CCN(C(=O)NC(C(=O)N[C@H]2Cc3cccc(C(=O)O)c3OB2O)c2cnc(O)cn2)C(=O)C1=O` (stereo partly drawn) [Example 121, (3R)-3-(2-(4-ethyl-2,3-dioxopiperazine-1-carboxamido)-2-(5-hydroxypyrazin-2-yl)acetamido)-2-hydroxy-3,4-dihydro-2H-benzo[e][1,2]oxaborinine-8-carboxylic acid], > 500 µM. As to `CCCN1CCN(C(=O)NC(C(=O)N[C@H]2Cc3cccc(C(=O)O)c3OB2O)c2ccc(O)c(O)c2Cl)C(=O)C1=O` (stereo partly drawn) [Example 82, (3R)-3-(2-(2-chloro-3,4-dihydroxyphenyl)-2-(2,3-dioxo-4-propylpiperazine-1-carboxamido)acetamido)-2-hydroxy-3,4-dihydro-2H-benzo[e][1,2]oxaborinine-8-carboxylic acid], the MIC in test [1] (setting [2]) lay in the range of 32 to 64 mg/L (≈ 54.4 to 109 µM).

Consider `CCN1CCN(C(=O)NC(C(=O)N[C@H]2Cc3cccc(C(=O)O)c3OB2O)c2cnc(N)s2)C(=O)C1=O` (stereo partly drawn) [Example 51, (3R)-3-(2-(2-aminothiazol-5-yl)-2-(4-ethyl-2,3-dioxopiperazine-1-carboxamido)acetamido)-2-hydroxy-3,4-dihydro-2H-benzo[e][1,2]oxaborinine-8-carboxylic acid], for which the EC50 on E. coli PBP2 (setting [3]) is > 500 µM. Same read-out and setting: the result for `O=C(O)c1c(F)ccc2c1OB(O)[C@@H](NC(=O)C(NC(=O)N1CCN(CCF)C(=O)C1=O)c1ccc(O)c(O)c1Cl)C2` (stereo partly shown) [Example 131] reads > 500 µM. `CCN1CCN(C(=O)NC(C(=O)N[C@H]2Cc3cccc(C(=O)O)c3OB2O)c2ccc(O)cc2F)C(=O)C1=O` (stereo partly drawn) [Example 87, (3R)-3-(2-(4-ethyl-2,3-dioxopiperazine-1-carboxamido)-2-(2-fluoro-4-hydroxyphenyl)acetamido)-2-hydroxy-3,4-dihydro-2H-benzo[e][1,2]oxaborinine-8-carboxylic acid]: the MIC in test [1] (setting [2]) is 32 to 64 mg/L (≈ 59 to 118 µM). Also, the half-maximal effective concentration (EC50) on E. coli PBP2 (setting [3]) was > 500 µM. With `CCN1CCN(C(=O)NC(C(=O)N[C@H]2Cc3ccc(F)c(C(=O)O)c3OB2O)c2ncc(O)cc2Cl)C(=O)C1=O` (stereo partly drawn) [Example 151, (3R)-3-(2-(3-chloro-5-hydroxypyridin-2-yl)-2-(4-ethyl-2,3-dioxopiperazine-1-carboxamido)acetamido)-7-fluoro-2-hydroxy-3,4-dihydro-2H-benzo[e][1,2]oxaborinine-8-carboxylic acid], the EC50 on E. coli PBP2 (setting [3]) was > 500 µM. On to `CCN1CCN(C(=O)NC(C(=O)N[C@H]2Cc3cccc(C(=O)O)c3OB2O)c2ccc(O)c(O)c2Cl)C(=O)C1=O` (stereo partly drawn) [Example 37, (3R)-3-(2-(2-chloro-3,4-dihydroxyphenyl)-2-(4-ethyl-2,3-dioxopiperazine-1-carboxamido)acetamido)-2-hydroxy-3,4-dihydro-2H-benzo[e][1,2]oxaborinine-8-carboxylic acid], for which the MIC in test [1] (setting [2]) fell in the range of 8 to 16 mg/L (≈ 13.9 to 27.8 µM). Same read-out and setting: the figure for `O=C(O)c1cccc2c1OB(O)[C@@H](NC(=O)C(NC(=O)N1CCN(CCF)C(=O)C1=O)c1ccc(B(O)O)cc1)C2` (stereo partly drawn) [Example 113, (3R)-3-(2-(4-boronophenyl)-2-(4-(2-fluoroethyl)-2,3-dioxopiperazine-1-carboxamido)acetamido)-2-hydroxy-3,4-dihydro-2H-benzo[e][1,2]oxaborinine-8-carboxylic acid] is 32 to 64 mg/L (≈ 56.1 to 112 µM).
